Results published in the supplement of paper PMC11061612.

Legend:
[1] = system: NCI-H1155 (Non-Small Cell Lung Carcinoma); test: combination Emax (second highest fraction inhibited in the dose matrix, 72 h); higher = more inhibition; extreme values may be limits of the assay
Method in brief: (§1)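 After 24 hours at 37°C and 5% CO2 in 1536-well plates, cells in DMEM/F12 or RPMI plus 10% FBS received two-drug dose matrices for 72 hours. Viability came from CellTiter-Glo 2.0 luminescence and was scaled as inhibition, anchored at 0 by vehicle wells and at 1 by blank wells. Combination Emax is taken as the second-highest inhibition in the matrix, and Bliss excess as the observed combination effect less EA + EB − EA·EB, with EA and EB the single-agent effects.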

[2] = system: OVTOKO (Ovarian Carcinoma); test: as above
Method in brief: as §1

[3] = system: AN3-CA (Endometrial Carcinoma); test: Bliss excess, mean over the matrix (fraction); higher = more synergy
Method in brief: as §1

[4] = system: SJRH30 (Rhabdomyosarcoma); test: as above
Method in brief: as §1

[5] = system: RMG-I (Ovarian Carcinoma); test: as above
Method in brief: as §1

[6] = system: NCI-H1563 (Lung Adenocarcinoma); test: as above
Method in brief: as §1

[7] = system: NCI-H196 (Small Cell Lung Carcinoma); test: as above
Method in brief: as §1

[8] = system: SK-MM-2 (Plasma Cell Myeloma); test: as above
Method in brief: as §1

[9] = system: BALL-1 (B-Lymphoblastic Leukemia); test: as above
Method in brief: as §1

[10] = system: RT4 (Bladder Carcinoma); test: as above
Method in brief: as §1

[11] = system: RL95-2 (Endometrial Carcinoma); test: as above
Method in brief: as §1

[12] = system: Caov-3 (Ovarian Carcinoma); test: as above
Method in brief: as §1

[13] = system: NCI-H810 (Non-Small Cell Lung Carcinoma); test: as above
Method in brief: as §1

[14] = system: COLO-684 (Endometrial Carcinoma); test: as above
Method in brief: as §1

[15] = system: HTC-C3 (Thyroid Gland Carcinoma); test: as above
Method in brief: as §1

[16] = system: Becker (Low Grade Glioma); test: as above
Method in brief: as §1

[17] = system: KYM-1 (Rhabdomyosarcoma); test: as above
Method in brief: as §1

[18] = system: OVTOKO (Ovarian Carcinoma); test: as above
Method in brief: as §1

[19] = system: LOUCY (T-Lymphoblastic Leukemia); test: as above
Method in brief: as §1

[20] = system: PC-14 (Lung Adenocarcinoma); test: as above
Method in brief: as §1
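For Bliss excess, mean over the matrix in this document: after 72 h of two-drug dosing.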

| SMILES | combination Emax [1] | combination Emax [2] | Bliss excess [3] | Bliss excess [4] | Bliss excess [5] | Bliss excess [6] | Bliss excess [7] | Bliss excess [8] | Bliss excess [9] | Bliss excess [10] | Bliss excess [11] | Bliss excess [12] | Bliss excess [13] | Bliss excess [14] | Bliss excess [15] | Bliss excess [16] | Bliss excess [17] | Bliss excess [18] | Bliss excess [19] | Bliss excess [20] |
| --- | --- | --- | --- | --- | --- | --- | --- | --- | --- | --- | --- | --- | --- | --- | --- | --- | --- | --- | --- | --- |
| C[C@@H]1COCCN1c1cc(C2([S@](C)(=N)=O)CC2)nc(-c2ccnc3[nH]ccc23)n1 [AZD6738] + O=C(c1cc(Cc2n[nH]c(=O)c3ccccc23)ccc1F)N1CCN(C(=O)C2CC2)CC1 [Olaparib] (first compound max 10 µM, 7x7, partner max 10 µM) | 0.825 | 0.398 | 0.0208 | -0.0205 | 0.0255 | -0.0116 | 0.0275 | -0.0084 | -0.0204 | 0.0357 | 0.0105 | -0.0231 | -0.008 | -0.109 | 0.0226 | -0.0077 | 0.0088 | 0.0182 | -0.0284 | 0.0132 |
| CN(CCO)CC[C@H](CSc1ccccc1)Nc1ccc(S(=O)(=O)NC(=O)c2ccc(N3CCC([C@@H](O)c4ccccc4-c4ccc(Cl)cc4)CC3)cc2)cc1S(=O)(=O)C(F)(F)F [AZD4320] + CN(C)CCCOc1ccc(-c2ccc3ncc4c(c3c2)n(C2CCOCC2)c(=O)n4C)cn1 [AZD0156] (first compound max 1 µM, 7x7, partner max 1 µM) | 0.717 | 0.25 | -0.0153 | 0.0144 | -0.048 | -0.0496 | -0.0414 | 0.0468 | -0.0185 | -0.0057 | -0.0408 | -0.0198 | -0.0328 | -0.0218 | -0.0185 | -0.035 | -0.0256 | -0.0217 | -0.006 | -0.019 |
| CN(CCO)CC[C@H](CSc1ccccc1)Nc1ccc(S(=O)(=O)NC(=O)c2ccc(N3CCC([C@@H](O)c4ccccc4-c4ccc(Cl)cc4)CC3)cc2)cc1S(=O)(=O)C(F)(F)F [AZD4320] + C[C@@H]1COCCN1C2=NC(=NC(=C2)C3(CC3)[S@](=N)(=O)C)C4=C5C=CNC5=NC=C4 [AZD6738] (first compound max 1 µM, 7x7, partner max 10 µM) | 0.985 | 0.54 | -0.0091 | 0.0213 | -0.13 | 0.0051 | -0.0112 | -0.0126 | 0.0096 | 0.0064 | -0.0163 | -0.0186 | -0.0762 | -0.0589 | -0.0305 | -0.0186 | 0.0286 | -0.112 | -0.0092 | -0.0133 |
| Cc1cc2ncnn2cc1Nc1ncc2c(n1)n(C1CCOCC1)c(=O)n2C [AZD7648] + O=C(c1cc(Cc2n[nH]c(=O)c3ccccc23)ccc1F)N1CCN(C(=O)C2CC2)CC1 [Olaparib] (first compound max 10 µM, 7x7, partner max 10 µM) | 0.293 | 0.186 | -0.0738 | -0.0148 | -0.0685 | -0.0487 | -0.0435 | -0.0204 | 0.0624 | 0.0016 | -0.0444 | -0.0336 | -0.0482 | -0.0054 | -0.0224 | -0.0281 | -0.0078 | -0.0433 | -0.0388 | -0.0245 |
| CC(=O)Nc1cccc(-n2c(=O)n(C3CC3)c(=O)c3c(Nc4ccc(I)cc4F)n(C)c(=O)c(C)c32)c1 [Trametinib] + Cc1nc(-c2cn3c(n2)-c2ccc(-c4cnn(C(C)(C)C(N)=O)c4)cc2OCC3)n(C(C)C)n1 [Taselisib] (first compound max 1 µM, 7x7, partner max 10 µM) | 0.348 | 0.795 | 0.0575 | 0.076 | -0.0099 | 0.103 | 0.0039 | 0.0386 | 0.142 | 0.0566 | 0.0378 | 0.0289 | -0.052 | -0.0034 | 0.113 | 0.121 | 0.0424 | 0.0659 | 0.0668 | 0.163 |
| Cc1cc2ncnn2cc1Nc1ncc2c(n1)n(C1CCOCC1)c(=O)n2C [AZD7648] + C=CCn1c(=O)c2cnc(Nc3ccc(N4CCN(C)CC4)cc3)nc2n1-c1cccc(C(C)(C)O)n1 [AZD1775] (first compound max 10 µM, partner max 1 µM) | 0.485 | 0.561 | -0.0091 | 0.0139 | 0.02 | -0.0041 | -0.0249 | -0.0214 | -0.0169 | 0.0218 | -0.0629 | -0.0869 | -0.0103 | -0.0713 | 0.0255 | -0.0269 | 0.0302 | 0.0188 | 0.0464 | -0.025 |
| CCN(CCO)CCCOc1ccc2c(Nc3cc(CC(=O)Nc4cccc(F)c4)[nH]n3)ncnc2c1 [AZD2811] + C[C@@H]1COCCN1C2=NC(=NC(=C2)C3(CC3)[S@](=N)(=O)C)C4=C5C=CNC5=NC=C4 [AZD6738] (first compound max 1 µM, 7x7, partner max 10 µM) | 0.787 | 0.37 | -0.0315 | -0.0079 | -0.0734 | -0.0114 | -0.0655 | -0.0732 | 0.0288 | -0.0318 | -0.0873 | -0.0747 | -0.0764 | -0.0913 | -0.0273 | -0.0343 | -0.0214 | -0.0305 | -0.0518 | -0.0492 |
| COc1cc2c(cc1OCCCCCOc1cc3c(cc1OC)C(=O)N1C=C(C)C[C@H]1C=N3)N=C[C@@H]1CC(C)=CN1C2=O [SG3199] + O=C(c1cc(Cc2n[nH]c(=O)c3ccccc23)ccc1F)N1CCN(C(=O)C2CC2)CC1 [Olaparib] (first compound max 0.001 µM, 7x7, partner max 10 µM) | 0.263 | 0.111 | -0.0292 | 0.0009 | -0.0599 | -0.0428 | -0.0387 | -0.0179 | 0.0476 | -0.0164 | -0.0383 | -0.0475 | -0.0368 | -0.0286 | -0.013 | -0.0361 | -0.0201 | -0.0476 | -0.039 | -0.0274 |
| COc1cccc(OCCCN)c1-c1cc(Nc2cnc(C#N)cn2)n[nH]1 [Prexasertib] + O=C(c1cc(Cc2n[nH]c(=O)c3ccccc23)ccc1F)N1CCN(C(=O)C2CC2)CC1 [Olaparib] (first compound max 1 µM, 7x7, partner max 10 µM) | 0.927 | 0.52 | -0.0523 | -0.104 | -0.124 | -0.037 | -0.0641 | -0.011 | -0.0145 | 0.0044 | -0.0343 | -0.0138 | -0.0082 | -0.128 | -0.0615 | -0.0257 | -0.0609 | -0.035 | -0.0422 | -0.0478 |
| CCN(CCO)CCCOc1ccc2c(Nc3cc(CC(=O)Nc4cccc(F)c4)[nH]n3)ncnc2c1 [AZD2811] + O=C(c1cc(Cc2n[nH]c(=O)c3ccccc23)ccc1F)N1CCN(C(=O)C2CC2)CC1 [Olaparib] (first compound max 1 µM, 7x7, partner max 10 µM) | 0.443 | 0.223 | -0.0011 | 0.0189 | -0.0141 | -0.0221 | -0.0193 | -0.0256 | 0.147 | 0.0243 | -0.0101 | -0.0444 | -0.016 | -0.0102 | -0.0101 | -0.0371 | 0.0071 | -0.012 | -0.0463 | 0.0228 |
| Cc1c2c(nn1C)CSCc1cc(n(C)n1)CSc1cc(c3ccccc3c1)OCCCc1c(C(=O)O)n(C)c3c-2c(Cl)ccc13 [AZD5991] + C[C@@H](Nc1cc(F)cc(F)c1)c1cc(C(=O)N(C)C)cc2c(=O)cc(N3CCOCC3)oc12 [AZD8186] (first compound max 1 µM, 7x7, partner max 3 µM) | 0.33 | 0.605 | 0.0606 | -0.0138 | -0.0247 | 0.0003 | -0.0353 | -0.0419 | -0.0163 | 0.0434 | -0.0802 | 0.0338 | -0.034 | -0.0292 | -0.014 | 0.0192 | 0.0291 | -0.0196 | -0.0772 | 0.0129 |
| CN(CCO)CC[C@H](CSc1ccccc1)Nc1ccc(S(=O)(=O)NC(=O)c2ccc(N3CCC([C@@H](O)c4ccccc4-c4ccc(Cl)cc4)CC3)cc2)cc1S(=O)(=O)C(F)(F)F [AZD4320] + CCN(CCO)CCCOc1ccc2c(Nc3cc(CC(=O)Nc4cccc(F)c4)[nH]n3)ncnc2c1 [AZD2811] (first compound max 1 µM, 7x7, partner max 1 µM) | 0.918 | 0.166 | 0.101 | 0.108 | -0.0297 | -0.0002 | -0.0513 | -0.0113 | 0.14 | 0.163 | 0.119 | 0.0419 | 0.0178 | -0.0217 | -0.0348 | -0.027 | -0.01 | -0.0324 | -0.0011 | 0.0099 |
